Columns and labels:
[1] = target: PI3K-δ (PI3K(p1108/p857) (h)) (Homo sapiens, UniProt O00329); assay: Evaluation of inhibitory activity against PI3K-δ (HTRF kinase assay); format: biochemical; details: for inhibition at 0.01 µM: compound concentration 0.01 μM, read-out: EXP_VALUE(% Inhibition) PI3K-δ 0.01 μM; for inhibition at 0.1 µM: compound concentration 0.1 μM, read-out: EXP_VALUE(% Inhibition) PI3K-δ 0.1 μM
In short: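 HTRF read-out (665/620 nm ratio ×10000) used Eu-labelled anti-GST, GST-tagged GRP1 PH domain and streptavidin-allophycocyanin after EDTA/PIP3 stop.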

DNA-PK(h) = DNA-PK(h) (Homo sapiens, UniProt P78527); assay: Evaluation of inhibitory activity against DNA-PK (HTRF kinase assay, GST-cMyc-p53 substrate); format: biochemical; details: for inhibition at 0.01 µM: compound concentration 0.01 μM, read-out: EXP_VALUE(% Inhibition) DNA-PK(h) 0.01 μM; for inhibition at 0.1 µM: compound concentration 0.1 μM, read-out: EXP_VALUE(% Inhibition) DNA-PK(h) 0.1 μM
In short: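 Human DNA-PK with 50 μM GST-cMyc-p53 substrate; reaction started with Mg/ATP, run 30 min at room temperature, stopped with EDTA. Phospho-Ser15 p53 detected by HTRF (Eu anti-phospho-Ser15, d2 anti-GST), signal = 10000×(Em 665/Em 620).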

Sequence of PI3K-δ (PI3K(p1108/p857) (h)) (O00329 whole entry, the tested form may be a part): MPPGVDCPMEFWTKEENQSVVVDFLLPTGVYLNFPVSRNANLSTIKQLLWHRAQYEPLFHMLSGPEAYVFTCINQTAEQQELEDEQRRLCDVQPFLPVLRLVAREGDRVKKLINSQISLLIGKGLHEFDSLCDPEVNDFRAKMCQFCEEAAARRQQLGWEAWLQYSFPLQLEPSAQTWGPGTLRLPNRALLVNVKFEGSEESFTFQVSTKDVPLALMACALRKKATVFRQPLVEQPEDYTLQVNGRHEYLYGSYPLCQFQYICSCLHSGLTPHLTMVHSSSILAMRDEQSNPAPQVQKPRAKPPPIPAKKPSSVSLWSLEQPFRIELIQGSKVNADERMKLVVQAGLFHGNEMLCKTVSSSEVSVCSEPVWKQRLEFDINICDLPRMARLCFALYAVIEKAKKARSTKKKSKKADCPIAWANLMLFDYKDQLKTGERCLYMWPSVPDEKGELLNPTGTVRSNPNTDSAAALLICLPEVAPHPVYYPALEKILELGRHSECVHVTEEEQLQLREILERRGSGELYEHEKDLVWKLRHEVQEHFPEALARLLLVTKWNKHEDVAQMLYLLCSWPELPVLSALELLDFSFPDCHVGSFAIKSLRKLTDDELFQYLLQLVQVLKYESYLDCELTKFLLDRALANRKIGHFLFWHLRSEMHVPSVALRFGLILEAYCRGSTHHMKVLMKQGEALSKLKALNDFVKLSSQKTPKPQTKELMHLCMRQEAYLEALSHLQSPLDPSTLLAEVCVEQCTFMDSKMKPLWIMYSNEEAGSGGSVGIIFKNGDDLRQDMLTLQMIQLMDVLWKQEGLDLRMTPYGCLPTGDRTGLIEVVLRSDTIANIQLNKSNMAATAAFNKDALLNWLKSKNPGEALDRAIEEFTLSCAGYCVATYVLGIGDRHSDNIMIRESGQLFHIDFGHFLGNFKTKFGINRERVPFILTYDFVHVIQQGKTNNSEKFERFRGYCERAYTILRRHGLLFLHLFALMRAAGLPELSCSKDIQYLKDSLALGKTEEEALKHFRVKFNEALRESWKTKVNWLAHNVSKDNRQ
Sequence of PI3K-δ (PI3K(p1108/p857) (h)) (P27986 whole entry partner, the tested form may be a part): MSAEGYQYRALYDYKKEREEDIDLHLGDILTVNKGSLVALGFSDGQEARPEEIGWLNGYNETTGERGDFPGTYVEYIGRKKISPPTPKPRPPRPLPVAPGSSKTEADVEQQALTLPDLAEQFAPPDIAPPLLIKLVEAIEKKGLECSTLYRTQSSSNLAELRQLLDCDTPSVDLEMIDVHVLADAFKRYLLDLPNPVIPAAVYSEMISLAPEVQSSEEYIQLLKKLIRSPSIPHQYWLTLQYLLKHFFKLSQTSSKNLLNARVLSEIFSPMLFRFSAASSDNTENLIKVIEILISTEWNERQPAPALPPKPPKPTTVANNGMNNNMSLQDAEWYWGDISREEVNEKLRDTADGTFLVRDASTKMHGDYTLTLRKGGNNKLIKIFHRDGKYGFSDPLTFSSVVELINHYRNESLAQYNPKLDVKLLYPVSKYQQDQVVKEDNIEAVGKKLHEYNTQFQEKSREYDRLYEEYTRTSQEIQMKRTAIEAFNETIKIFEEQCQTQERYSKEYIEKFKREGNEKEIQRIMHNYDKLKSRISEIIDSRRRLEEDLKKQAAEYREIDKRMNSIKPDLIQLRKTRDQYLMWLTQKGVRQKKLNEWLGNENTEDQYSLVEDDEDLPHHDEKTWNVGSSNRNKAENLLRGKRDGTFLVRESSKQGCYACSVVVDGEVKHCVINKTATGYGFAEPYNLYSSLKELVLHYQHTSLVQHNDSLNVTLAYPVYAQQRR

SMILES | inhibition at 0.01 µM [1] [%] | inhibition at 0.1 µM [1] [%] | inhibition at 0.01 µM (DNA-PK(h)) [%] | inhibition at 0.1 µM (DNA-PK(h)) [%]
C[C@H](Nc1ncnc2[nH]ccc(=O)c12)c1c(Cl)c2cccc(-c3ccc4c(c3)OCCN4)c2c(=O)n1-c1ccccc1 [Example 120, (S)-4-((1-(4-chloro-8-(3,4-dihydro-2H-benzo[b][1,4]oxazin-7-yl)-1-oxo-2-phenyl-1,2-dihydroisoquinolin-3-yl)ethyl)amino)pyrido[2,3-d]pyrimidin-5(8H)-one] | 65 | 95 | 72 | 98
C[C@H](Nc1ncnc2[nH]ccc(=O)c12)c1c(Cl)c2cccc(-c3ccc4ncccc4c3)c2c(=O)n1-c1ccccc1 [Example 121, (S)-4-((1-(4-chloro-1-oxo-2-phenyl-8-(quinolin-6-yl)-1,2-dihydroisoquinolin-3-yl)ethyl)amino)pyrido[2,3-d]pyrimidin-5(8H)-one] | 84 | 95 | 76 | 98
C[C@H](Nc1ncnc2[nH]ccc(=O)c12)c1c(Cl)c2cccc(-c3ccccc3F)c2c(=O)n1-c1ccccc1 [Example 122, (S)-4-((1-(4-chloro-8-(2-fluorophenyl)-1-oxo-2-phenyl-1,2-dihydroisoquinolin-3-yl)ethyl)amino)pyrido[2,3-d]pyrimidin-5(8H)-one] | 68 | 88 | 61 | 92
C[C@H](Nc1ncnc2[nH]ccc(=O)c12)c1c(Cl)c2cccc(-c3cccc(F)c3)c2c(=O)n1-c1ccccc1 [Example 123, (S)-4-((1-(4-chloro-8-(3-fluorophenyl)-1-oxo-2-phenyl-1,2-dihydroisoquinolin-3-yl)ethyl)amino)pyrido[2,3-d]pyrimidin-5(8H)-one] | 66 | 94 | 58 | 93
C[C@H](Nc1ncnc2[nH]ccc(=O)c12)c1c(Cl)c2cccc(-c3cc(F)cc(F)c3)c2c(=O)n1-c1ccccc1 [Example 124, (S)-4-((1-(4-chloro-8-(3,5-difluorophenyl)-1-oxo-2-phenyl-1,2-dihydroisoquinolin-3-yl)ethyl)amino)pyrido[2,3-d]pyrimidin-5(8H)-one] | 83 | 99 | 44 | 86
C[C@H](Nc1ncnc2[nH]ccc(=O)c12)c1c(Cl)c2cccc(-c3ccc4[nH]cnc4c3)c2c(=O)n1-c1ccccc1 [Example 125, (S)-4-((1-(8-(1H-benzo[d]imidazol-5-yl)-4-chloro-1-oxo-2-phenyl-1,2-dihydroisoquinolin-3-yl)ethyl)amino)pyrido[2,3-d]pyrimidin-5(8H)-one] | 68 | 95 | 79 | 97
Cc1cc(-c2cccc3c(Cl)c([C@H](C)Nc4ncnc5[nH]ccc(=O)c45)n(-c4ccccc4)c(=O)c23)cc(C)c1O [Example 126, (S)-4-((1-(4-chloro-8-(4-hydroxy-3,5-dimethylphenyl)-1-oxo-2-phenyl-1,2-dihydroisoquinolin-3-yl)ethyl)amino)pyrido[2,3-d]pyrimidin-5(8H)-one] | 74 | 94 | 70 | 96
Cc1ccc(F)cc1-c1cccc2c(Cl)c([C@H](C)Nc3ncnc4[nH]ccc(=O)c34)n(-c3ccccc3)c(=O)c12 [Example 127, (S)-4-((1-(4-chloro-8-(5-fluoro-2-methylphenyl)-1-oxo-2-phenyl-1,2-dihydroisoquinolin-3-yl)ethyl)amino)pyrido[2,3-d]pyrimidin-5(8H)-one] | 89 | 92 | 38 | 81
Cc1cc(-c2cccc3c(Cl)c([C@H](C)Nc4ncnc5[nH]ccc(=O)c45)n(-c4ccccc4)c(=O)c23)ccc1F [Example 128, (S)-4-((1-(4-chloro-8-(4-fluoro-3-methylphenyl)-1-oxo-2-phenyl-1,2-dihydroisoquinolin-3-yl)ethyl)amino)pyrido[2,3-d]pyrimidin-5(8H)-one] | 101 | 105 | 59 | 97
C[C@H](Nc1ncnc2[nH]ccc(=O)c12)c1c(Cl)c2cccc(-c3cccc(F)c3F)c2c(=O)n1-c1ccccc1 [Example 129, (S)-4-((1-(4-chloro-8-(2,3-difluorophenyl)-1-oxo-2-phenyl-1,2-dihydroisoquinolin-3-yl)ethyl)amino)pyrido[2,3-d]pyrimidin-5(8H)-one] | 75 | 67 | 56 | 91
C[C@H](Nc1ncnc2[nH]ccc(=O)c12)c1c(Cl)c2cccc(-c3ccc(C4CCN(C)CC4)cc3)c2c(=O)n1-c1ccccc1 [Example 130, (S)-4-((1-(4-chloro-8-(4-(1-methylpiperidin-4-yl)phenyl)-1-oxo-2-phenyl-1,2-dihydroisoquinolin-3-yl)ethyl)amino)pyrido[2,3-d]pyrimidin-5(8H)-one] | 85 | 89 | 98 | 102
Cc1cc(F)ccc1-c1cccc2c(Cl)c([C@H](C)Nc3ncnc4[nH]ccc(=O)c34)n(-c3ccccc3)c(=O)c12 [Example 131, (S)-4-((1-(4-chloro-8-(4-fluoro-2-methylphenyl)-1-oxo-2-phenyl-1,2-dihydroisoquinolin-3-yl)ethyl)amino)pyrido[2,3-d]pyrimidin-5(8H)-one] | 81 | 91 | 54 | 92

Further lines, results first:

inhibition at 0.01 µM [1] [%] | inhibition at 0.1 µM [1] [%] | inhibition at 0.01 µM (DNA-PK(h)) [%] | inhibition at 0.1 µM (DNA-PK(h)) [%] | SMILES
91 | 94 | 89 | 102 | C[C@H](Nc1ncnc2[nH]ccc(=O)c12)c1c(Cl)c2cccc(-c3cnc4c(c3)OCCO4)c2c(=O)n1-c1ccccc1 [Example 132, (S)-4-((1-(4-chloro-8-(2,3-dihydro-[1,4]dioxino[2,3-b]pyridin-7-yl)-1-oxo-2-phenyl-1,2-dihydroisoquinolin-3-yl)ethyl)amino)pyrido[2,3-d]pyrimidin-5(8H)-one]
78 | 88 | 79 | 99 | COc1ccc(-c2cccc3c(Cl)c([C@H](C)Nc4ncnc5[nH]ccc(=O)c45)n(-c4ccccc4)c(=O)c23)cn1 [Example 133, (S)-4-((1-(4-chloro-8-(6-methoxypyridin-3-yl)-1-oxo-2-phenyl-1,2-dihydroisoquinolin-3-yl)ethyl)amino)pyrido[2,3-d]pyrimidin-5(8H)-one]
85 | 92 | 83 | 97 | C[C@H](Nc1ncnc2[nH]ccc(=O)c12)c1c(Cl)c2cccc(-c3ccncc3)c2c(=O)n1-c1ccccc1 [Example 134, (S)-4-((1-(4-chloro-1-oxo-2-phenyl-8-(pyridin-4-yl)-1,2-dihydroisoquinolin-3-yl)ethyl)amino)pyrido[2,3-d]pyrimidin-5(8H)-one]
78 | 97 | 85 | 100 | Cc1nc2cc(-c3cccc4c(Cl)c([C@H](C)Nc5ncnc6[nH]ccc(=O)c56)n(-c5ccccc5)c(=O)c34)ccc2[nH]1 [Example 135, (S)-4-((1-(4-chloro-8-(2-methyl-1H-benzo[d]imidazol-5-yl)-1-oxo-2-phenyl-1,2-dihydroisoquinolin-3-yl)ethyl)amino)pyrido[2,3-d]pyrimidin-5(8H)-one]
83 | 93 | 75 | 97 | Cc1ncc(-c2cccc3c(Cl)c([C@H](C)Nc4ncnc5[nH]ccc(=O)c45)n(-c4ccccc4)c(=O)c23)cn1 [Example 136, (S)-4-((1-(4-chloro-8-(2-methylpyrimidin-5-yl)-1-oxo-2-phenyl-1,2-dihydroisoquinolin-3-yl)ethyl)amino)pyrido[2,3-d]pyrimidin-5(8H)-one]
84 | 92 | 87 | 100 | C[C@H](Nc1ncnc2[nH]ccc(=O)c12)c1c(Cl)c2cccc(-c3ccc4nccnc4c3)c2c(=O)n1-c1ccccc1 [Example 137, (S)-4-((1-(4-chloro-1-oxo-2-phenyl-8-(quinoxalin-6-yl)-1,2-dihydroisoquinolin-3-yl)ethyl)amino)pyrido[2,3-d]pyrimidin-5(8H)-one]
33 | 81 | 32 | 75 | C[C@H](Nc1ncnc2[nH]ccc(=O)c12)c1c(Cl)c2cccc(-c3ccc(N4CCN(C(=O)OC(C)(C)C)CC4)cc3)c2c(=O)n1-c1ccccc1 [Example 138, tert-butyl(S)-4-(4-(4-chloro-1-oxo-3-(1-((5-oxo-5,8-dihydropyrido[2,3-d]pyrimidin-4-yl)amino)ethyl)-2-phenyl-1,2-dihydroisoquinolin-8-yl)phenyl)piperazin-1-carboxylate]
51 | 94 | 74 | 96 | C[C@H](Nc1ncnc2[nH]ccc(=O)c12)c1c(Cl)c2cccc(-c3ccc(C(=O)N(C)C)cc3)c2c(=O)n1-c1ccccc1 [Example 139, (S)-4-(4-chloro-1-oxo-3-(1-((5-oxo-5,8-dihydropyrido[2,3-d]pyrimidin-4-yl)amino)ethyl)-2-phenyl-1,2-dihydroisoquinolin-8-yl)-N, N-dimethylbenzamide]
